For series [1], the system named is MAPK signaling (pERK, pJNK) in K562 WT cells. Nature of the series: Western blotting of pERK and pJNK in K562 WT cells. The class given is cell-based, human. The settings on record: absence of ligand fibrinogen. The protocol: K562 WT cells were incubated with LA1, LA2, LA15 (15 μM), or fibrinogen (200 μg) in serum-free medium for 1 hour at 37° C. Cell lysates were resolved on 4-12% NuPAGE Bis-Tris SDS-PAGE gels using MES running buffer and transferred to a polyvinylidene difluoride (PVDF) membrane (ThermoScientific) using established protocols. Membranes were incubated with a 1:1,000 dilution of the anti-phospho-protein antibodies (anti phospho-p44/42 MAPK (pERK1/2) antibody (Thr202/Tyr204, Cell Signaling) or anti-phospho-SAPK/JNK (pJNK) antibody (Thr183/Tyr185, Cell Signaling #81E11)), or with an antibody against either total ERK1/2 (p44/42 MARK (Erk1/2), Cell Signaling #137F5) or total JNK (SAPK/JNK, Cell Signaling #56G8) and developed according to the manufacturer's instructions (ThermoScientific). Proteins were quantified by densitometry using ImageJ software. […]
Second, an effect of integrin ligation, macro clustering and redistribution in the plasma membrane is the triggering of outside-in intracellular signaling in cells via various MAPKs. […] In FIGS. 6A-6B, immunoblot results from two independent experiments were quantified using ImageJ software and ratio of phosphorylated protein to total protein was determined. Histograms showing this quantitation for each set are also shown. […] In FIGS. 6C-6D, immunoblot results from two independent experiments were quantified and are also shown, as in 6A and 6B.
Background: Immunoblotting shows a protein as a band on a membrane.

Series [2] deals with Cl66 cells. As to the kind of experiment: Orthotopic Cl66 mammary adenocarcinoma tumor growth, with or without Taxol. The format is in vivo. The settings on record: BALB/c mice. The protocol:
The syngeneic murine mammary adenocarcinoma cell line Cl66 (moderately metastatic and is related to the highly metastatic 4T1 cell line) was orthotopically introduced in Balb/c animals, by injecting ˜5×10^5 Cl66 cells under the left mammary fat pad of WT BALB/c mice (approx. 8-10 weeks old). The tumor size was measured using calipers every other day until the end of the experiment (approx. 5 weeks). 7-days post implantation, the tumors in all animals became palpable, with an average size of ˜100 mm3. At that time, animals in each group were treated as described. LA1 was administered daily for the first two weeks and then every other day until the end of the experiment. Animals in Group 1 received Saline injections, as control. […] It can also enhance the efficacy of traditional chemotherapy in various cancers, including breast cancer, to produce a synergistic response to the treatment. It can also reduce the incidence and the size of metastases.

Series [3] can be described thus: LA1 concentration in mouse blood after PO and IP dosing (LC-MS). The class given is in vivo. The settings on record: 10 mg/kg, mice.
Series [4] deals with Cl66 cells. Nature of the series: Cl66 tumor re-growth after irradiation. The format is in vivo, mice. The protocol:
Data shown are means±SEM. *, P<0.05; **, P<0.001 (by one-way ANOVA). In this experiment, four groups of tumor-bearing animals were used (n=11/group): 1) Treatment with saline alone (red line), 2) Treatment with leukadherins LA1 alone (orange line), 3) Treatment with a single dose of 20 Gy irradiation (two 10%+10% vertices) alone (black line) and 4) Treatment with a single dose of 20 Gy irradiation and then daily LA1 (at −2 hours) (blue line). The syngeneic murine mammary adenocarcinoma cell line Cl66 (moderately metastatic and is related to the highly metastatic 4T1 cell line) was orthotopically introduced in Balb/c animals, by injecting approximately 5×10^5 Cl66 cells under the left mammary fat pad of WT BALB/c mice (approximately 10 weeks old). The tumor size was measured using calipers every other day until the end of the experiment (approximately 5 weeks). 7-days post implantation, the tumors in all animals became palpable, with an average size of ˜100 mm3. At that time, animals in groups 3 and 4 were treated with irradiation. Animals in group 4 received LA1, starting at 2 hours prior to irradiation. […]
A syngeneic xenograft model was used to address the effects of inflammatory cell recruitment on tumor cell re-growth after radio-therapy. […] The tumor size was measured using calipers every other day until the end of the experiment (approximately 5 weeks). […]

The test system of series [5] is hematopoiesis and HSC compartment. Nature of the series: Hematopoiesis and HSC compartment after 6 Gy total body irradiation. The format is in vivo, mice. The conditions noted are these: 1 mg/kg i.p. 7 days from 24 hours post 6 Gy TBI; 4 weeks post TBI. The protocol:
FIGS. 26A-26C show the analysis of hematopoiesis and HSC compartment in LA1 (Red bars), Vehicle control (Blue bars) treated groups of mice at 4 weeks after 6 Gy of total body irradiation (TBI), showing that LA1 is highly radio-protective and a radio-mitigator. […] Mice were exposed to 6 Gy of TBI (at 0.5 Gy/min), and treated intraperitoneally (i.p.) with LA1 (1 mg/kg) or vehicle alone for 7 consecutive days starting at 24 hours post TBI.

Series [6] deals with T cells from the draining lymph nodes. As to the kind of experiment: IFN production by antigen-reactive T cells (MOG-peptide). The format is cell-based, mice. The conditions noted are these: antigen dose-dependent. The protocol:
Additionally, LA1 decreased IFN-[…] production by T-cells in an antigen dose-dependent fashion (MOG-peptide, data not shown) when antigen-reactive T cells from the draining lymph nodes of mice were assessed.

The next series addresses CD11b/CD18 (Homo sapiens, UniProt P11215). The conditions noted are these: earlier described [55]; cited from earlier work.

Structures are written as SMILES.

`O=C(O)c1ccc(-c2ccc(/C=C3\SC(=S)N(Cc4ccccc4)C3=O)o2)cc1` [LA1]: the “phosphorylated ERK (pERK) and phosphorylated JNK (pJNK)” value in series [1] is listed as “did not induce any significant pERK or pJNK”. The “rate of tumor growth, co-treatment with Taxol” value in the series on Cl66 cells [2] was “highest reduction in the rate of tumor growth”. Besides, the “rate of tumor growth, single agent” value with Cl66 cells [2] (vs vehicle) was “significant reduction in the rate of tumor growth”. In series [3], the bioavailability result is given as “bioavailable”, the “concentration of LA1 in plasma” value is listed as “high concentrations”, the levels in blood entry is reported as “micromolar levels” and the mean residence time result was “at least a few hours”. Also, the “rate of tumor growth, LA1 alone without irradiation” value with Cl66 cells [4] (similar to irradiation alone) is listed as “reduced rate of tumor growth”. Further, the “rate of tumor growth post-irradiation” value in the series on Cl66 cells [4] (single dose 20 Gy plus LA1 from -2 hours) was “significant reduction in the rate of tumor growth post-irradiation”. Besides, the “HSC analysis (BM cellularity, frequency of LKS+ BM cells and LKS+ CD150+ CD48− BM cells)” value in series [5] was “significant improvement”. Moreover, in series [6], the “IFN-[…] production by T-cells” value is reported as “decreased”. For the same molecule, the “affinity for CD11b/CD18” value on CD11b/CD18 was “high-affinity”.

The record behind these values is US10239871B2, “Compounds and methods for regulating integrins” (ADHAERE PHARMACEUTICALS, INC., priority 2012, dated 2019).
